# PubChem BioAssay AID2060896 (Molecular Pharmacology Branch, DTP, NCI, 2025)
# Tested on: 941728-121-R-J1-PDC complex spheroid viability
# Assay: Anticancer human tumor 941728-121-R-J1-PDC patient-derived lung adenocarcinoma cell line growth inhibition [RAS]
# Details: for IC50: curve of first compound; for viability, T/C: stronger effect = lower value
# From the text: RAS pathway inhibitors in Combinations in Complex Spheroids
# A high-throughput screen of multi-cell type tumor spheroids was designed to identify active combinations of RAS pathway inhibitors and targeted small molecules. Complex spheroids include a stromal component modeled by human endothelial cells (HUVEC) and fibroblasts modeled by human mesenchymal stem cells (MSCs). The concentration ranges selected for each drug and investigational agent were based upon clinically achievable concentrations if the clinical Cmax of the agent was known.
# Compounds. The drugs and investigational agents: abemaciclib (NSC768073), cobimetinib (NSC768068), divarasib (GDC6063, NSC841802), docetaxel (NSC628503), GDC-1971 (RLY-1971, NSC841576), gemcitabine (NSC613327), inavolisib (NSC800729), ipatasertib (NSC767898), KB-0742 (NSC834161), MRTX-1133 (NSC836407), osimertinib (NSC779217), RMC-4630 (NSC839698), RMC-6236 (NSC851965), RMC-6291 (NSC852671), Ro-3306 (NSC812927), sapanisertib (NSC764658), SN-38 (NSC673596), staurosporine (NSC755774), SY5609 (NSC837396), and tovorafenib (DAY101, NSC766906), were obtained from the National Cancer Institute (NCI) Developmental Therapeutics Program Chemical Repository. The FDA-approved anticancer drug set is available from the NCI Developmental Therapeutics Program. […] The stock solutions were prepared in dimethyl sulfoxide (DMSO, Sigma-Aldrich, St. Louis, MO, cat. D2650) at 800-fold the tested concentration and stored at -70 degrees C prior to their use. All drugs and investigational agents were tested over a range starting from a high concentration at or near the clinical Cmax and decreasing in half-log increments. If the clinical Cmax for an agent had not been determined, the highest concentration tested was 10 microM.
# Cell Culture. All cells were maintained in an incubator at 37 degrees C and 5% CO2 with 95% humidity. The PDC lines were cultured according to standard operating procedures established by the NCI PDMR. All PDCs were thawed and cultured in Matrigel-coated flasks prepared with a working solution of 1X Ham's F-12 nutrient mix, without supplementation (Invitrogen, Waltham, MA, cat. 11765054), 100 U/mL penicillin-streptomycin (Invitrogen, cat. 15140122), and 2.5% Matrigel (Corning Inc., Corning, NY, cat. 354248) for the first three passages. The 362531-283-R-J2-PDC and 782815-120-R-J1-PDC lines were cultured in 6C/Colon 1B media, which includes advanced DMEM/F-12 (Thermo Fisher Scientific, cat. 12634028), 10 mM HEPES (Thermo Fisher Scientific, cat. 15630080), 1X GlutaMAX supplement (Thermo Fisher Scientific, cat. 35050061), 0.1 mg/mL primocin (InvivoGen, San Diego, CA, cat. ant-pm-2), 10% defined fetal bovine serum, heat inactivated (HyClone Laboratories Inc., Logan, UT, cat. SH30070.03HI), 50% L-WRN conditioned media (ATCC, cat. CRL-3276), 1.25 mM N-Acetyl-L-cysteine (Sigma-Aldrich, cat. A9165), 10 mM nicotinamide (Sigma-Aldrich, cat. N0636), 1X B-27 supplement (Thermo Fisher Scientific, cat. 17504044), 1X N-2 supplement (Thermo Fisher Scientific, cat. 17502048), 50 ng/mL human EGF (Thermo Fisher Scientific, cat. PHG0311), and 10 microM Y-27632 dihydrochloride (Tocris Bioscience, cat. 1254). The K12877-001-R-J1-PDC line was cultured in 6I media, which includes all 6C/Colon 1B media plus 10 ng/mL human FGF-10 (PeproTech, cat. 100-26), 1 ng/mL human FGF-2 (PeproTech, cat. 100-18B), 1 µM prostaglandin E2 (Tocris Bioscience, cat. 2296), […] hydrocortisone (Sigma-Aldrich, cat. H4001), and […] bovine insulin (Sigma-Aldrich, cat. I6634). The K86415-001-R-J1-PDC line was cultured in 6D media, which includes all 6C/Colon 1B media components minus the L-WRN conditioned media. The 485176-168-R4-J1-PDC was cultured in PANC media, which includes all 6C/Colon 1B media plus 100 ng/mL human FGF-10 (PeproTech, cat. 100-26), 500 nM SB-431542 (Selleckchem, cat. S1067), and 10 nM gastrin (Tocris Bioscience, cat. 3006). […]
# 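Note: spheroids exposed to compounds for 7 days before readout.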
# 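Throughout, for viability, T/C: 100% = DMSO vehicle control viability.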
smiles,measurement,setting,value
C[C@@H](NC(=O)c1ncnc(N)c1Cl)c1ncc(C(=O)Nc2cc(C(F)(F)F)c(Cl)cn2)s1 + C#Cc1c(F)ccc2cc(O)cc(-c3ncc4c(N5CC6CCC(C5)N6)nc(OCC56CCCN5CC(F)C6)nc4c3F)c12,IC50,second compound 0.0316 µM,7 µM
same,IC50,second compound 0.1 µM,7.1 µM
same,IC50,second compound 0.316 µM,2.68 µM
same,IC50,second compound 1 µM,< 0.0316 µM
same,IC50,second compound 3.16 µM,< 0.0316 µM
same,IC50,second compound 10 µM,< 0.0316 µM
same,"viability, T/C","second compound 0.0316 µM, first compound 0.0316 µM",107%
same,"viability, T/C","second compound 0.0316 µM, first compound 0.1 µM",102%
same,"viability, T/C","second compound 0.0316 µM, first compound 0.316 µM",108%
same,"viability, T/C","second compound 0.0316 µM, first compound 1 µM",94.4%
same,"viability, T/C","second compound 0.0316 µM, first compound 3.16 µM",72.5%
same,"viability, T/C","second compound 0.0316 µM, first compound 10 µM",40%
same,"viability, T/C","second compound 0.1 µM, first compound 0.0316 µM",102%
same,"viability, T/C","second compound 0.1 µM, first compound 0.1 µM",109%
same,"viability, T/C","second compound 0.1 µM, first compound 0.316 µM",103%
same,"viability, T/C","second compound 0.1 µM, first compound 1 µM",102%
same,"viability, T/C","second compound 0.1 µM, first compound 3.16 µM",76.3%
same,"viability, T/C","second compound 0.1 µM, first compound 10 µM",38.9%
same,"viability, T/C","second compound 0.316 µM, first compound 0.0316 µM",69.7%
same,"viability, T/C","second compound 0.316 µM, first compound 0.1 µM",79.6%
same,"viability, T/C","second compound 0.316 µM, first compound 0.316 µM",69.6%
same,"viability, T/C","second compound 0.316 µM, first compound 1 µM",60.2%
same,"viability, T/C","second compound 0.316 µM, first compound 3.16 µM",49.2%
same,"viability, T/C","second compound 0.316 µM, first compound 10 µM",37.1%
same,"viability, T/C","second compound 1 µM, first compound 0.0316 µM",46.2%
same,"viability, T/C","second compound 1 µM, first compound 0.1 µM",48.5%
same,"viability, T/C","second compound 1 µM, first compound 0.316 µM",45.3%
same,"viability, T/C","second compound 1 µM, first compound 1 µM",39.4%
same,"viability, T/C","second compound 1 µM, first compound 3.16 µM",38.4%
same,"viability, T/C","second compound 1 µM, first compound 10 µM",29.4%
same,"viability, T/C","second compound 3.16 µM, first compound 0.0316 µM",30%
same,"viability, T/C","second compound 3.16 µM, first compound 0.1 µM",32.5%
same,"viability, T/C","second compound 3.16 µM, first compound 0.316 µM",28.2%
same,"viability, T/C","second compound 3.16 µM, first compound 1 µM",26.5%
same,"viability, T/C","second compound 3.16 µM, first compound 3.16 µM",30.2%
same,"viability, T/C","second compound 3.16 µM, first compound 10 µM",28.1%
same,"viability, T/C","second compound 10 µM, first compound 0.0316 µM",24.4%
same,"viability, T/C","second compound 10 µM, first compound 0.1 µM",25.2%
same,"viability, T/C","second compound 10 µM, first compound 0.316 µM",25.3%
same,"viability, T/C","second compound 10 µM, first compound 1 µM",26.2%
same,"viability, T/C","second compound 10 µM, first compound 3.16 µM",25%
same,"viability, T/C","second compound 10 µM, first compound 10 µM",21.7%
